# Laboratory results published in patent US10301264B2, “Compounds useful for treating ocular neovasculan” (The University of Nottingham, priority 2012, dated 2019).
# Key:
# [1] = system: SRSF1 phosphorylation in PC3 prostate cancer cells; experiment: Inhibition of SRSF1 phosphorylation induced by EGF activation; format: cell-based; settings: 10 μM, 1 hr, 10 nM EGF
# Experimental: Inhibition of SRSF1 Phosphorylation Induced by EGF Activation. […] Cells were lysed, and subjected to immunoblotting using an antibody to phosphorylated SR proteins (MAB104) and an antibody to tubulin as a loading control. Intensity was measured for SRSF1 and SRSF5 bands using ImageJ Intensity. Phosphorylation is calculated as the increase in intensity of the band over untreated relative to that for EGF with vehicle.
# [2] = system: laser-induced CNV; experiment: Laser-induced mouse CNV model, intravitreal injection; format: in vivo; settings: discussion summary, route not stated
# Experimental: (§1) Laser Lesion Induction Protocol
# (§2) Six to eight week-old C57/B6 mice (B&K Laboratories) and adult Norway-Brown rats (Harlan Laboratories) were anaesthetized with an intraperitoneal injection of a mixture of 50 mg/kg ketamine and 0.5 mg/kg medetomidine. The pupils were dilated with 2.5% phenylephrine hydrochloride and 1% tropicamide. Four photocoagulation lesions were delivered with a krypton red laser (Mice: 250 mW, 0.01 s, 75 μm, Rats: 200 mW, 0.01 s, 75 μm, IRIS Medical 810 nm Oculight Slx laser) between the retinal vessels in a peripapillary distribution at a distance of 1-2 disc-diameters in each eye. Only laser lesions with a subretinal bubble at the time of treatment were included in the study. […] Animals were culled on either day 4 or day 14 and eyes were either unfixed for retinal dissection and protein extraction, or fixed and enucleated and choroids stained for isolectin-B4 and examined.
# [3] = system: laser-induced CNV; experiment: Laser-induced mouse CNV model, topical eye drops; format: in vivo; settings: mouse, topical
# Experimental: as §1, §2
# We performed a dose response trial investigating SRPIN340 topical eye drops. SRPIN340 was dissolved in a previously described drug delivery vehicle (Doukas et al., 2008) and administered twice daily. Fourteen days following laser insult choroids were fixed and flatmounted for isolectin staining and retinae were extracted for RNA analysis.
# [4] = system: VEGF165 mRNA isoforms in primary RPE cells; experiment: RT-PCR for VEGF165 / VEGF165b mRNA in primary RPE cells; format: cell-based, human; settings: 100 nM, FIG. 9A
# Experimental: ID NO: 5)). […] Cells were treated with […]6 and 7 and the PCR repeated.
# [5] = system: VEGF165b protein in RPE cells; experiment: Western blotting for VEGF165b in RPE cells; format: cell-based, human; settings: 100 nM, FIG. 9B
# Experimental: Protein was extracted from RPE cells treated for 48 hours with SPHINXes and subjected to western blotting for VEGF165b using anti-VEGF165b antibody as previously described (Gammons et al Invest. Ophthahnol. Vis. Sci. 54(9) 6052-6062).
smiles,measurement,setting,value
CN(C)CCN1CCN(c2ccc(C(F)(F)F)cc2NC(=O)c2ccc(-c3ccncc3)o2)CC1 [SPHINX7],SRSF1 phosphorylation induced by EGF,[1],inhibit SRSF1 phosphorylation
same,"area of neovascular lesions, mouse laser-induced CNV model",[2],achieving significance
same,"CNV formation, eye drop",[3],significantly inhibited CNV formation
same,IC50,"[3]; FIG. 11, read-out: IC50 for inhibition of CNV as an eye drop",0.225 µg/mL
same,amount of VEGF165 at RNA level,[4],reduce the amount of VEGF165
same,VEGF165b at protein level,[5],increase VEGF165b
